Target: T1, IC-GPCR2 (Homo sapiens, UniProt Q8TDV5, S309L)
T1 construct: expressed in transfected cells
T1 sequence (Q8TDV5 1-335 S309L): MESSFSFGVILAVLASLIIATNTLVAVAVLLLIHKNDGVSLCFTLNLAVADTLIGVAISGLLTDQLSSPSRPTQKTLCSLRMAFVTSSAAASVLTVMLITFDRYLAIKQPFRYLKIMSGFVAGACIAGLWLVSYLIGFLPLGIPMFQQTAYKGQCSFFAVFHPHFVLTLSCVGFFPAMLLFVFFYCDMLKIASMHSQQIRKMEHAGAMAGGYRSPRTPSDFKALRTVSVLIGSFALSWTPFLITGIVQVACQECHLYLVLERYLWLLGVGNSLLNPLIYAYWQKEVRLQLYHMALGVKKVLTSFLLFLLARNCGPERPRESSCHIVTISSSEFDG
Assay: Stimulation of cAMP in CHO cells stably expressing IC-GPCR2 (HTRF cAMP assay)
Assay type: cell-based
Conditions: 0.5 h, 30 minutes, IC-GPCR2 stably expressing CHO cells, read-out: Activity at 10 uM (% change in FRET signal from DMSO control)
Procedure: This assay was developed using a stable cell line expressing IC-GPCR-2, generated as follows. IC-GPCR2 (SEQ ID NO:1) was cloned into Gateway pDEST 40vector (Invitrogen), using the Gateway cloning system (invitrogen) according to the manufacturer's instructions. A stable cell line was generated by transfecting a 10 cm plate of CHO cells (source) with 8 ug of this construct using Transit-CHO transfection kit (Mirus). CHO cells were plated the day prior to transfection at a density of 3,000,000 cells/plate. Clones were selected using the antibiotic G418 at 500 ug/ml. 23 clones were picked and assayed for the expression of the receptor by measuring changes in intracellular cAMP levels in response to an IC-GPCR2 agonist.
To measure cAMP activity in response to IC-GPCR2 agonist, the clones were plated in 96 well plates at 17500 cells per well. On the day after plating, cells were incubated with the IC-CPCR2 agonist at […] for 30 minutes in Ham's F12 Media (Gibco) with 0.04% DMSO. cAMP was measured using the cAMP dynamic kit from Cis Bio (Bedford, Mass.) according to the manufacturer's instructions. Briefly, cells were lysed, and cAMP levels determined by competitive immunoassay using D2 labeled cAMP, and europium cryptate tagged anti cAMP antibody. When in close proximity, the D2 and europium cryptate undergo fluorescence resonance energy transfer (FRET), which is measured as a fluorescence ratio (665 nm/620 nm). Unlabelled cAMP in the cell lysate competed with the D2 labeled cAMP for the europium crypate labeled antibody. The resulting decrease in FRET signal corresponded to intracellular cAMP levels. Fluorescence was read on a BMG Labtech PHERAstar, software version 1.50.
Compounds were dissolved in 100% DMSO to a concentration of […] to provide stock solutions. To determine activity against IC-GPCR2, compounds were incubated with IC-GPCR2 stably expressing cells (described above), at 6-8 concentrations ranging from 0.00003 to 10 micromolar, in 96 well plates, in 50 ul of Hams F12 media for 30 minutes. Cells were plated at 17500 cells per well 1 day before running the assay. All compounds were also screened against the parental CHO cells. cAMP was measured using the cAMP dynamic kit from Cis Bio (Bedford, Mass.), according to the manufacturer's instructions. Briefly, cells were lysed and cAMP levels determined by competitive immunoassay using D2 labeled cAMP, and europium cryptate tagged anti cAMP antibody. When in close proximity, the D2 and europium cryptate undergo fluorescence resonance energy transfer (FRET), which is measured as a fluorescence ratio (665 nm/620 nm). Unlabelled cAMP in the cell lysate competed with the D2 labeled cAMP for the europium crypate labeled antibody. The resulting decrease in FRET signal corresponded to intracellular cAMP levels.
Activities of compounds disclosed in Table 1 and Table 2 below are expressed as the % change in FRET signal from DMSO control. “*” no activity observed when tested at 10 micromolar but no higher concentrations were tested. NT indicates the compound was not tested at the indicated concentration.

Structure (SMILES) | activation at 10 µM [%]
Fc1cnc(N2CCC(c3nc(COc4ccc(-n5cnnn5)cc4)cs3)CC2)nc1 [Example 55, 5-Fluoro-2-{4-[4-(4-tetrazol-1-yl-phenoxymethyl)-thiazol-2-yl]-piperidin-1-yl}-pyrimidine] | 66
Cc1cnc(N2CCC(c3nc(COc4ccc(-n5cnnn5)cc4)cs3)CC2)nc1Cl [Example 57, 4-Chloro-5-methyl-2-{4-[4-(4-tetrazol-1-yl-phenoxymethyl)-thiazol-2-yl]-piperidin-1-yl}-pyrimidine] | 7
Clc1ccc(-c2cnc(N3CCC(c4nc(COc5ccc(-n6cnnn6)cc5)cs4)CC3)nc2)cc1 [Example 59] | 70
Clc1cnc(N2CCC(c3nc(COc4ccc(-n5cnnn5)cc4)cs3)CC2)nc1 [Example 60] | 60
COc1ccc(-c2cnc(N3CCC(c4nc(COc5ccc(-n6cnnn6)cc5)cs4)CC3)nc2)cc1 [Example 66, 5-(4-Methoxy-phenyl)-2-{4-[4-(4-tetrazol-1-yl-phenoxymethyl)-thiazol-2-yl]-piperidin-1-yl}-pyrimidine] | 57
COc1cnc(N2CCC(c3nc(COc4ccc(-n5cnnn5)cc4)cs3)CC2)nc1 [Example 68, 5-Methoxy-2-{4-[4-(4-tetrazol-1-yl-phenoxymethyl)-thiazol-2-yl]-piperidin-1-yl}-pyrimidine] | 53
Cc1ccc(N2CCC(c3nc(COc4ccc(-n5cnnn5)cc4)cs3)CC2)nc1 [Example 69, 5′-Methyl-4-[4-(4-tetrazol-1-yl-phenoxymethyl)-thiazol-2-yl]-3,4,5,6-tetrahydro-2H-[1,2′]bipyridinyl] | 74
FC(F)(F)c1ccc(N2CCC(c3nc(COc4ccc(-n5cnnn5)cc4)cs3)CC2)nc1 [Example 71, 4-[4-(4-Tetrazol-1-yl-phenoxymethyl)-thiazol-2-yl]-5′-trifluoromethyl-3,4,5,6-tetrahydro-2H-[1,2′]bipyridinyl] | 88
O=Cc1ccc(N2CCC(c3nc(COc4ccc(-n5cnnn5)cc4)cs3)CC2)nc1 [Example 72, 4-[4-(4-Tetrazol-1-yl-phenoxymethyl)-thiazol-2-yl]-3,4,5,6-tetrahydro-2H-[1,2′]bipyridinyl-5′-carbaldehyde] | 78
CS(=O)(=O)c1ccc(OCc2csc(C3CCN(c4nc5ccccc5o4)CC3)n2)cc1 [Example 74, 2-{4-[4-(4-Methanesulfonyl-phenoxymethyl)-thiazol-2-yl]-piperidin-1-yl}-benzooxazole] | 17

Now from value to compound:

activation at 10 µM [%] | Structure (SMILES)
74 | CCc1cnc(N2CCC(c3nc(COc4ccc(S(C)(=O)=O)cc4F)cs3)CC2)nc1 [Example 76, 5-Ethyl-2-{4-[4-(2-fluoro-4-methanesulfonyl-phenoxymethyl)-thiazol-2-yl]-piperidin-1-yl}-pyrimidine]
43 | CC(C)(C)OC(=O)N1CCC(C)(c2nc(COc3ccc(S(C)(=O)=O)cc3)cs2)CC1 [Example 78, 4-[4-(4-Methanesulfonyl-phenoxymethyl)-thiazol-2-yl]-4-methyl-piperidine-1-carboxylic acid tert-butyl ester]
59 | CC(C)(C)OC(=O)N1CCC(c2nc(COc3ccc(S(C)(=O)=O)cc3)no2)CC1 [Example 81, 4-[3-(4-Methanesulfonyl-phenoxymethyl)-[1,2,4]oxadiazol-5-yl]-piperidine-1-carboxylic acid tert-butyl ester]
27 | CC(C)(C)OC(=O)N1CCC(c2noc(COCc3ccccc3)n2)CC1 [Example 83, 4-(5-Benzyloxymethyl-[1,2,4]oxadiazol-3-yl)-piperidine-1-carboxylic acid tert-butyl ester]
59 | CCc1cnc(N2CCC(c3nc(COc4ccc(S(C)(=O)=O)cc4)no3)CC2)nc1 [Example 84, 5-Ethyl-2-{4-[3-(4-methanesulfonyl-phenoxymethyl)-[1,2,4]oxadiazol-5-yl]-piperidin-1-yl}-pyrimidine]
